These results are taken from the supplement of paper PMC10307832.

Common to all, as to assay: relative viability (nuclei count vs DMSO), 5 days (fraction); higher = more cells survive
Compound in the assay “Selisistat + Pictilisib”: C1CC(C2=C(C1)C3=C(N2)C=CC(=C3)Cl)C(=O)N [Selisistat] + CS(=O)(=O)N1CCN(Cc2cc3nc(-c4cccc5[nH]ncc45)nc(N4CCOCC4)c3s2)CC1 [Pictilisib] (partner 1 µM)
Summed up:
(§1)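 Dosing by pin tool came one day after lung cancer cell lines were seeded in 1536-well plates, using either one drug or a fixed anchor-drug dose plus five library-drug doses (not always all listed) in √10 steps. After 5 days, nuclei were counted on 4× images. Relative viability is treated-well nuclei count divided by vehicle-well nuclei count, and values are medians of duplicate plates.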

Compound in the assay “Selisistat + Foretinib”: C1CC(C2=C(C1)C3=C(N2)C=CC(=C3)Cl)C(=O)N [Selisistat] + COc1cc2c(Oc3ccc(NC(=O)C4(C(=O)Nc5ccc(F)cc5)CC4)cc3F)ccnc2cc1OCCCN1CCOCC1 [Foretinib] (partner 0.25 µM)
A digest of the protocol: as §1

Compound in the assay “Serdemetan + Tozasertib”: c1ccc2c(CCNc3ccc(Nc4ccncc4)cc3)c[nH]c2c1 [Serdemetan] + Cc1cc(Nc2cc(N3CCN(C)CC3)nc(Sc3ccc(NC(=O)C4CC4)cc3)n2)n[nH]1 [Tozasertib] (partner 0.1 µM)
Summed up:
as §1

Compound in the assay “Serdemetan + Olaparib”: c1ccc2c(CCNc3ccc(Nc4ccncc4)cc3)c[nH]c2c1 [Serdemetan] + O=C(c1cc(Cc2n[nH]c(=O)c3ccccc23)ccc1F)N1CCN(C(=O)C2CC2)CC1 [Olaparib] (partner 8 µM)
A digest of the protocol: as §1

As for NCI-H2170, the relative viability came to 0.323 with Selisistat + Pictilisib (first compound 0.4 µM); 0.338 with Selisistat + Pictilisib (first compound 1.265 µM); 0.275 with Selisistat + Pictilisib (first compound 4 µM); 0.303 in the assay with Selisistat + Pictilisib (first compound 12.65 µM); 0.378 with Selisistat + Pictilisib (first compound 40 µM); 1.11 in the assay with Selisistat + Foretinib (first compound 0.4 µM). Also, the relative viability with Selisistat + Foretinib (first compound 1.265 µM) was 1; with Selisistat + Foretinib (first compound 4 µM), 0.943; in the assay with Selisistat + Foretinib (first compound 12.65 µM), 1.03; with Selisistat + Foretinib (first compound 40 µM), 1.08; in the assay with Serdemetan + Tozasertib (first compound 0.04 µM), 0.662; with Serdemetan + Tozasertib (first compound 0.1265 µM) it was 0.732. Also, the relative viability in the assay with Serdemetan + Tozasertib (first compound 0.4 µM) worked out at 0.7; with Serdemetan + Tozasertib (first compound 1.265 µM), 0.276; with Serdemetan + Tozasertib (first compound 4 µM), 0.685; with Serdemetan + Olaparib (first compound 0.04 µM), 0.641; with Serdemetan + Olaparib (first compound 0.1265 µM) it was 0.571; in the assay with Serdemetan + Olaparib (first compound 0.4 µM), 0.544. In addition, the relative viability turned out to be 0.469 with Serdemetan + Olaparib (first compound 1.265 µM) and 0.352 with Serdemetan + Olaparib (first compound 4 µM).
For the cell line NCI-H1395, the relative viability with Selisistat + Pictilisib (first compound 0.4 µM) is 0.617; in the assay with Selisistat + Pictilisib (first compound 1.265 µM), 0.609; with Selisistat + Pictilisib (first compound 4 µM) it was 0.564; in the assay with Selisistat + Pictilisib (first compound 12.65 µM) it was 0.656; with Selisistat + Pictilisib (first compound 40 µM) it was 0.557; with Selisistat + Foretinib (first compound 0.4 µM) it was 1.01. Besides, the relative viability with Selisistat + Foretinib (first compound 1.265 µM) came to 0.993; in the assay with Selisistat + Foretinib (first compound 4 µM), 0.909; in the assay with Selisistat + Foretinib (first compound 12.65 µM), 1.03; with Selisistat + Foretinib (first compound 40 µM) it was 0.878; in the assay with Serdemetan + Tozasertib (first compound 0.04 µM), 0.736; with Serdemetan + Tozasertib (first compound 0.1265 µM) it was 0.742. In addition, the relative viability with Serdemetan + Tozasertib (first compound 0.4 µM) turned out to be 0.838; in the assay with Serdemetan + Tozasertib (first compound 1.265 µM), 0.751; with Serdemetan + Tozasertib (first compound 4 µM), 0.513; with Serdemetan + Olaparib (first compound 0.04 µM), 0.445; with Serdemetan + Olaparib (first compound 0.1265 µM) it was 0.442; with Serdemetan + Olaparib (first compound 0.4 µM), 0.443. Further, the relative viability in the assay with Serdemetan + Olaparib (first compound 1.265 µM) was 0.478; with Serdemetan + Olaparib (first compound 4 µM) it was 0.399.
Consider NCI-H358, for which the relative viability is 0.402 with Selisistat + Pictilisib (first compound 0.4 µM); 0.361 with Selisistat + Pictilisib (first compound 1.265 µM); 0.408 in the assay with Selisistat + Pictilisib (first compound 12.65 µM); 0.395 in the assay with Selisistat + Pictilisib (first compound 40 µM); 0.808 with Selisistat + Foretinib (first compound 0.4 µM); 0.763 in the assay with Selisistat + Foretinib (first compound 1.265 µM). The relative viability in the assay with Selisistat + Foretinib (first compound 4 µM) was 0.553; with Selisistat + Foretinib (first compound 12.65 µM), 0.727; with Selisistat + Foretinib (first compound 40 µM) it was 0.833; with Serdemetan + Tozasertib (first compound 0.04 µM) it was 0.0807; with Serdemetan + Tozasertib (first compound 0.1265 µM) it was 0.105; with Serdemetan + Tozasertib (first compound 0.4 µM), 0.111. Also, the relative viability in the assay with Serdemetan + Tozasertib (first compound 1.265 µM) amounted to 0.102; with Serdemetan + Tozasertib (first compound 4 µM), 0.0954; with Serdemetan + Olaparib (first compound 0.04 µM) it was 0.582; with Serdemetan + Olaparib (first compound 0.1265 µM), 0.507; in the assay with Serdemetan + Olaparib (first compound 0.4 µM) it was 0.626; with Serdemetan + Olaparib (first compound 1.265 µM), 0.595. Besides, the relative viability with Serdemetan + Olaparib (first compound 4 µM) came out at 0.464.
In the case of NCI-H838, the relative viability with Selisistat + Pictilisib (first compound 0.4 µM) worked out at 0.48; with Selisistat + Pictilisib (first compound 1.265 µM), 0.514; in the assay with Selisistat + Pictilisib (first compound 4 µM), 0.39; in the assay with Selisistat + Pictilisib (first compound 12.65 µM) it was 0.489; in the assay with Selisistat + Pictilisib (first compound 40 µM) it was 0.446; with Selisistat + Foretinib (first compound 0.4 µM), 1.03. Further, the relative viability with Selisistat + Foretinib (first compound 1.265 µM) worked out at 1.03; with Selisistat + Foretinib (first compound 4 µM), 0.957; with Selisistat + Foretinib (first compound 12.65 µM) it was 1.07; with Selisistat + Foretinib (first compound 40 µM), 0.962; with Serdemetan + Tozasertib (first compound 0.04 µM) it was 0.282; with Serdemetan + Tozasertib (first compound 0.1265 µM), 0.246. Besides, the relative viability with Serdemetan + Tozasertib (first compound 0.4 µM) turned out to be 0.234; with Serdemetan + Tozasertib (first compound 1.265 µM), 0.231; with Serdemetan + Tozasertib (first compound 4 µM), 0.232; in the assay with Serdemetan + Olaparib (first compound 0.04 µM), 0.739; in the assay with Serdemetan + Olaparib (first compound 0.1265 µM), 0.759; with Serdemetan + Olaparib (first compound 0.4 µM), 0.671. Moreover, the figures for the relative viability in the assay with Serdemetan + Olaparib (first compound 1.265 µM) and with Serdemetan + Olaparib (first compound 4 µM) were 0.669 and 0.874, respectively.
In the case of CAL-12T, the relative viability in the assay with Selisistat + Pictilisib (first compound 0.4 µM) is 0.384; with Selisistat + Pictilisib (first compound 1.265 µM), 0.388; with Selisistat + Pictilisib (first compound 12.65 µM) it was 0.6; with Selisistat + Pictilisib (first compound 40 µM) it was 0.314; with Selisistat + Foretinib (first compound 0.4 µM) it was 1.12; in the assay with Selisistat + Foretinib (first compound 1.265 µM), 1. Besides, the relative viability was 1 with Selisistat + Foretinib (first compound 4 µM); 1.03 in the assay with Selisistat + Foretinib (first compound 12.65 µM); 1.03 with Selisistat + Foretinib (first compound 40 µM); 0.272 in the assay with Serdemetan + Tozasertib (first compound 0.04 µM); 0.318 in the assay with Serdemetan + Tozasertib (first compound 0.1265 µM); 0.246 in the assay with Serdemetan + Tozasertib (first compound 0.4 µM). The relative viability in the assay with Serdemetan + Tozasertib (first compound 1.265 µM) was 0.309; with Serdemetan + Tozasertib (first compound 4 µM), 0.327; with Serdemetan + Olaparib (first compound 0.04 µM) it was 0.777; in the assay with Serdemetan + Olaparib (first compound 0.1265 µM), 0.713; in the assay with Serdemetan + Olaparib (first compound 0.4 µM), 0.576; with Serdemetan + Olaparib (first compound 1.265 µM), 0.742. Moreover, the relative viability with Serdemetan + Olaparib (first compound 4 µM) is 0.67.
